Experiment [1] concerns the target PKC purified from the rat brain. In words: PKC binding assay. To be noted: for Ki: competitive inhibition of [3H]-PDBu binding, read-out: PKC Binding constant. On the procedure:
Filters (Whatman GF-B, 21 mm dia.) are soaked for 1 hour in a solution containing deionized water (97 mL), and 10% polyethyleneamine (3 mL). An assay buffer solution is prepared by the combining of TRIS (1M, pH 7.4, 1 mL), KCl (1M, 2 μL), CaCl2 (0.1M, 30 μL), bovine serum albumin (40 mg), and diluting to 20 mL with deionized water and stored on ice. Phosphatidyl serine vesicles are prepared by the addition of phosphatidyl serine (10 mg/mL in chloroform, 0.4 mL) to a glass test tube followed by removal of the chloroform under a stream of nitrogen (5 min). To this viscous liquid is added a portion of the prepared assay buffer (4 mL) and the resulting mixture is then transferred to a plastic tube. This tube is then sonicated (Branson Sonifier 250, power=6, 40% duty cycle) four times for 30 sec. with a 30 sec. rest in-between sonications. The resulting solution is stored over ice. PKC is prepared by the addition of cooled assay buffer (10 mL) to PKC (25 mL) purified from the rat brain by the method of Mochly-Rosen et al. (J. Biol. Chem. 1987, 262, 2291) and then stored on ice. Stock solutions of compounds are diluted with absolute ethanol in glass in serial fashion.
Each plastic assay incubation tube is made to contain prepared phosphatidyl serine vesicles (60 μL), prepared PKC solution (200 μL) and analog ([…] plus EtOH (20-0 μL) for a total volume of 20 μL). Lastly, tritiated phorbol dibutryate ([3H]-PDBu) (30 nM, 20 μL) is added to each tube. The assay is carried out using 7-10 analog concentrations, each in triplicate. Non-specific binding is measured in 1-3 tubes by the substitution of phorbol myristate acetate (PMA) (1 mM, 5 μL) and EtOH (15 μL) for the analog/EtOH combination. The tubes are incubated at 37° C. for 90 min. and then put on ice for 5 min. Each tube is then filtered separately through a pre-soaked filter disc. The filter is subsequently rinsed with cold 20 mM TRIS buffer (5 mL) dropwise. The filters are then put in separate scintillation vials and Universol® scintillation fluid is added (3 mL). The filters are immediately counted in a scintillation counter (Beckman LS 6000SC). Counts per minute are averaged among three trials at each concentration. The data is then plotted using a least square fit algorithm with the Macintosh version of Kaleidagraph® (Abelbeck Software) and an IC50 (defined as the concentration of analog required to displace half of the specific PDBu binding to PKC) is calculated. The IC50 then allows determination of the Ki for the analog from the equation: Ki=IC50/(1+[PDBu])/Kd of PDBu).

For experiment [2], the system named is P388 cell line. In words: P388 murine lymphocytic leukemia cell assay. In kind it is cell-based. Conditions: Mus musculus, P388, 120 h, read-out: P388 Assay ED50. On the procedure:
Cells from a P388 cell line (CellGate, Inc., Sunnyvale, Calif.) are grown in RPMI 1640 cell medium containing fetal calf serum (10%), L-glutamine, penicillin, streptomycin and are split twice weekly. All compounds are first diluted with DMSO. Later serial dilutions are done with a phosphate buffer solution (HYQ DPBS modified phosphate buffered saline). All dilutions are done in glass vials and the final DMSO concentration is always below 0.5% by volume. Final two-fold dilutions are done in a 96 well plate using cell media so that each well contains 50 μL. All compounds are assayed in quadruplicate over 12 concentrations. Cell concentration is measured using a hemacytometer and the final cell concentration is adjusted to 1×10^4 cells/mL with cell medium. The resulting solution of cells (50 μL) is then added to each well and the plates are incubated for 5 days in a 37° C., 5% CO2, humidified incubator (Sanyo CO2 incubator). MTT solution (3-[4,5-dimethylthiazol-2-yl]-2,5-diphenyltetrazolium bromide, 10 μL) is then added to each well and the plates are re-incubated under identical conditions for 2 h. To each well is then added acidified isopropanol (150 μL of i-PrOH solution containing 0.05 N HCl) and mixed thoroughly. The plates are then scanned at 595 nm and the absorbances are read (Wallac Victor 1420 Multilabel Counter). The resulting data is then analyzed to determine an ED50 value using the Prism software package (GraphPad).

The target of experiment [3] is T1, PKCδ-C1B (Mus musculus, UniProt P28867).
T1 construct: made in house
T1 sequence (P28867 231-281 limits assumed): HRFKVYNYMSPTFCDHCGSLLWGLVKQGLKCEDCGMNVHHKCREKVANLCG
Briefly: PKCδ-C1B assay. It is filed as binding. On the procedure:
Phosphatidyl serine vesicles are prepared by the addition of phosphatidyl serine (10 mg/mL in chloroform, 0.4 mL) to a glass test tube followed by removal of the chloroform under a stream of nitrogen (5 min). […] The resulting solution is stored over ice. […] Stock solutions of compounds are diluted with absolute ethanol in glass in serial fashion. […] The tubes are incubated at 37° C. for 90 min. and then put on ice for 5 min. Each tube is then filtered separately through a pre-soaked filter disc. […] The filter is subsequently rinsed with cold 20 mM TRIS buffer (5 mL) dropwise. […] The filters are immediately counted in a scintillation counter (Beckman LS 6000SC). Counts per minute are averaged among three trials at each concentration.

Experiment [4] has as its target PKC purified from rat brain. In words: Protein kinase C (isozyme mix) assay. In kind it is binding. Conditions: 37° C., 90 min, read-out: Kd of [H^3]-PDBu. As for the experimental part: In one approach, anticancer activity of compounds of the invention can be assessed using the protein kinase C assay detailed in Example 5. In this assay, Ki values are determined for analogues based on competition with radiolabeled phorbol 12,13-dibutyrate for binding to a mixture of PKC isoenzymes. PKC enzymes are implicated in a variety of cellular responses which may be involved in the activity of the bryostatins.
The following procedure was used, based on a modification of a previous procedure described by Tanaka et al. (1986). Filters (Whatman GF-B, 21 mm diam.) are soaked for 1 h in a solution containing deionized water (97 mL), and 10% polyethyleneamine (3 mL). A filtering buffer solution containing TRIS (1M, pH 7.4, 10 mL) and water (490 mL) is prepared and cooled on ice. […] Non-specific binding is measured in 1-3 tubes by the substitution of phorbol myristate acetate (PMA) (1 mM, 5 μL) and EtOH (15 μL) for the analogue/EtOH combination. […] The filters are immediately counted in a scintillation counter (Beckman LS 6000SC). […] The data is then plotted using a least squares fit algorithm with the Macintosh version of Kaleidagraph© (Abelbeck Software) and an IC50 (defined as the concentration of analogue required to displace half of the specific PDBU binding to PKC) is calculated. […]

Broadly, the Kd is the constant that tells how readily two partners part at equilibrium.

Like-named read-outs stand apart in the source and are kept apart here.

Take `C=CCC1C[C@H]2CCOCC[C@@H](O)CC(=O)O[C@@H](CO)C[C@@H]3C/C(=C\C(=O)OC)[C@H](OC(=O)CCCCCCC)[C@@](O)(O3)C(C)(C)/C=C/[C@@H](O1)O2` (some centres unmarked) [Formula 20A]: the Ki in experiment [1] amounted to 2.6 nM. With `CCCCCCC(=O)O[C@H]1/C(=C/C(=O)OC)C[C@H]2C[C@H]([C@@H](C)O)OC(=O)C[C@H](O)C[C@@H]3CCC[C@H](C[C@@H]4CCO[C@H](/C=C/C(C)(C)[C@]1(O)O2)O4)O3` [Formula 702.3], the EC50 in experiment [2] came to 38 nM. The Ki in experiment [3] was found to be 35 nM.

As for `C=CCC1C[C@H]2C[C@H]3CCC[C@@H](C[C@@H](O)CC(=O)O[C@@H](CO)C[C@@H]4C/C(=C\C(=O)OC)[C@H](OC(=O)CCCCCCC)[C@@](O)(O4)C(C)(C)/C=C/[C@@H](O1)O2)O3` (some centres unmarked) [Formula 22A], the Ki in experiment [1] is 0.67 nM. In the case of `COC(=O)/C=C1\C[C@H]2C[C@H]([C@@H](C)O)OC(=O)C[C@H](O)C[C@@H]3CCC[C@H](C[C@@H]4CCO[C@H](/C=C/C(C)(C)[C@](O)(O2)[C@H]1OC(C)=O)O4)O3` [Formula 702.2], the EC50 in experiment [2] (5 days incubation, MTT) amounted to 181 nM.

As to `CCCC(=O)O[C@@H]1[C@@H](C)[C@@]2(O)[C@@H](C=C(CO)C[C@]3(O)C(=O)C(C)=C[C@@H]23)[C@@H]2C(C)(C)[C@]12OC(=O)CCC` [[3H]—PDBu, tritiated phorbol 12,13-dibutyrate, reference compound], the values for the Kd in experiment [1] (read-out: PKC Binding constant (Kd of [3H]-PDBu)) and in experiment [4] were 1.17 nM and 1.55 nM, respectively. `CCCC(=O)O[C@@H]1[C@@H](C)[C@@]2(O)[C@@H](C=C(CO)C[C@]3(O)C(=O)C(C)=C[C@@H]23)[C@@H]2C(C)(C)[C@]12OC(=O)CCC` [Phorbol dibutyrate, phorbol 12,13-dibutyrate, reference compound] displayed a Kd in experiment [3] (Kd value) of 1.7 nM.

(Values after patent US8735609B2, “Bryostatin analogues, synthetic methods and uses” (The Board of Trustees of the Leland Stanford Junior …, priority 2007, dated 2014).)
